Assay results from patent US6469013B2, “Therapeutic compounds” (Parker Hughes Institute, priority 1998, dated 2002).
Like-named read-outs stand apart in the source and are kept apart here.

Columns and labels:
[1] = test system: NALM-6 (pre-B ALL); experiment: Methylcellulose clonogenic assay; format: cell-based, human
Experimental: (§1) The antileukemic activity of compound 6 against clonogenic tumor cells was examined using a methylcellulose colony assay system (Uckun, F. M., et al., J. Exp. Med. 163: 347-368, 1986; Messinger, Y., et al., Clin Cancer Res. 4: 165-70, 1998). In brief, cells (10^5/ml in RPMI-10% FBS) were treated overnight at 37° C. with compound 6 at varying concentrations. After treatment, cells were washed twice, plated at 10^4 or 10^5 cells/ml in RPMI-10% FMS-0.9% methylcellulose in Petri dishes, and cultured for 7 days at 37° C. in a humidified 5% CO2 incubator. Subsequently, leukemic cell (or tumor cell) colonies were enumerated using an inverted phase-contrast microscope. The percent inhibition of colony formation was calculated using the following formula:
(§2) % Inhibition=1−mean number of colonies in test culture×100 mean number of colonies in control culture

[2] = test system: C57BL/6 splenocytes; experiment: Splenocyte apoptosis (TUNEL, flow cytometry); format: cell-based, mouse; conditions: 20 h
Experimental: C57BL/6 splenocytes (3×10^6/ml) were cultured in 24-well plate for 20 h in 500 μl of RPMI-1640 under the conditions described above. […] Apoptotic cell death was detected by TUNEL, using InSitu Cell Detection Kit, Fluorescein (Boehringer Mannheim, Indianapolis, Ind.). After the culture period, cells were washed, fixed, permeabilised and stained following manufacturer's instructions and apoptosis was analyzed by flow cytometry, using FACS Calibur (Becton Dickinson, San Jose, Calif.).

[3] = target: T1, human JAK3 (Homo sapiens, UniProt P52333); experiment: JAK3 immune complex kinase assay (JAK3 immunoprecipitated from KL2 EBV-transformed B cell line); format: biochemical; conditions: JAK3 kinase assay, KL2 cell-derived human JAK3; read-out: IC50
T1 sequence (P52333 1-1124): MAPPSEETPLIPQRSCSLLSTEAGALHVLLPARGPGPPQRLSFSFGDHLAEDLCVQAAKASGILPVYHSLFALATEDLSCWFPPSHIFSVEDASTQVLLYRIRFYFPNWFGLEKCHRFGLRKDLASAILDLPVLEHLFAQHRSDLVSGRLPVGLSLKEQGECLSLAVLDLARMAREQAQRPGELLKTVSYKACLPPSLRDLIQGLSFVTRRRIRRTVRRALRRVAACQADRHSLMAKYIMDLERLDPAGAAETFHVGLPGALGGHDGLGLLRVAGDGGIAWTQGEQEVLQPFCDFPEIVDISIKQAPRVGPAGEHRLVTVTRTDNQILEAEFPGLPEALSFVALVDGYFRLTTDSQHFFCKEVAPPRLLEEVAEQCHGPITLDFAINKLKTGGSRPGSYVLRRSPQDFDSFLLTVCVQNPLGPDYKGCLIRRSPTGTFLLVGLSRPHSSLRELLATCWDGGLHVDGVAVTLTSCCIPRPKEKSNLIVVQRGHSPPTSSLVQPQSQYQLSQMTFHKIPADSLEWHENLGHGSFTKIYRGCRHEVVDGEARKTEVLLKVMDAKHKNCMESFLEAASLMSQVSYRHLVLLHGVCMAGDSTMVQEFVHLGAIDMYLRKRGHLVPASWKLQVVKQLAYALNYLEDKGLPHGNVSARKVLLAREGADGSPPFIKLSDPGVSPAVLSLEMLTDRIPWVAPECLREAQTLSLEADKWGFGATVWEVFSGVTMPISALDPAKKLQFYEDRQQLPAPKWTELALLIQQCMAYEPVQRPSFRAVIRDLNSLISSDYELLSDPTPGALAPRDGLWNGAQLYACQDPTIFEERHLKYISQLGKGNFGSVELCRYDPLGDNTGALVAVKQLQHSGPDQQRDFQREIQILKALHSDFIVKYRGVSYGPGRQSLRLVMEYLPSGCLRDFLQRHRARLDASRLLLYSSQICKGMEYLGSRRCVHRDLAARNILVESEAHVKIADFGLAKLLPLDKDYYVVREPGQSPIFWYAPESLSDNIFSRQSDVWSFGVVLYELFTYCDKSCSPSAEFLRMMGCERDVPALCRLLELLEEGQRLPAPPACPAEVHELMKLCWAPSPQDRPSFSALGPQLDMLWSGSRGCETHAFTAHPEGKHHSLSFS
Experimental: In JAK3 immune complex kinase assays (17, 22), KL-2 EBV-transformed human lymphoblastoid B cells (native JAK3 kinase assays) or insect ovary cells (recombinant JAK3 kinase assays) were lysed with NP-40 lysis buffer (50 mM Tris, pH 8, 150 mM NaCl, 5 mM EDTA, 1% NP-40, 100 μM sodium orthovanadate, 100 μM sodium molybdate, 8 μg/ml aprotinin, 5 μg/ml leupeptin, and 500 μM PMSF) and centrifuged 10 min at 13000× g to remove insoluble material. Samples were immunoprecipitated with antisera prepared against JAK3. The antisera were diluted and immune complexes collected by incubation with 15 μl protein A Sepharose. After 4 washes with NP-40 lysis buffer, the protein A Sepharose beads were washed once in kinase buffer (20 mM MOPS, pH7, 10 mM MgCl2) and resuspended in the same buffer. Reactions were initiated by the addition of 25 μCi [γ^32P] ATP (5000 Ci/mMole) and unlabeled ATP to a final concentration of 5 μM. Reactions were terminated by boiling for 4 min in SDS sample buffer. Samples were run on 9.5% SDS polyacrylamide gels and labeled proteins were detected by autoradiography. Following electrophoresis, kinase gels were dried onto Whatman 3M filter paper and subjected to phosphorimaging on a Molecular Imager (Bio-Rad, Hercules, Calif.) as well as autoradiography on film. For each drug concentration, a kinase activity index (KA) was determined by comparing the kinase activity in phosphorimager units (PIU) to that of the baseline sample. In some experiments, cold kinase assays were performed, as described by (Uckun, F. M., et al., Clin. Can. Res. 4: 901-912, 1998).
We first used immune complex kinase assays to compare the effects of the synthesized dimethoxyquinazoline compounds on the enzymatic activity of human JAK3 immunoprecipitated from the KL2 EBV-transformed human lymphoblastoid B cell line.

[4] = test system: DAUDI (B-ALL); experiment: Methylcellulose clonogenic assay; format: cell-based
Experimental: as §1, §2

`COc1cc2ncnc(Nc3ccc(O)cc3)c2cc1OC` [WHI-P131, 4-(4′-hydroxyl-phenyl)-amino-6,7-dimethoxyquinazoline] was tested, and the inhibition at 100 µM ([1]; Homo sapiens, NALM-6, 100 μM, 'these leukemia cell lines', read-out: inhibition of in vitro colony formation) was > 99%, the inhibition at 0.1 µM ([1]; Homo sapiens, NALM-6, 0.1 μM) was 0% and the inhibition at 1 µM ([1]; Homo sapiens, NALM-6, 1 μM) was 0%. For the same molecule, the inhibition at 10 µM ([1]; Homo sapiens, NALM-6, 10 μM) was 33.2%, the inhibition at 100 µM ([1]; Homo sapiens, NALM-6, 100 μM, read-out: % Inhibition) was > 99.9% and the EC50 ([1]; Homo sapiens, NALM-6 cells, read-out: EC50, inhibition of clonogenic growth) was 24.4 µM. For the same molecule, the “Mean No. of Colonies/10^5 Cells” value ([1]; NALM-6, 0.1 μM) was 2970 (2756, 3184), the “Mean No. of Colonies/10^5 Cells” value ([1]; NALM-6, 1 μM) was 3180 (3080, 3136) and the “Mean No. of Colonies/10^5 Cells” value ([1]; NALM-6, 10 μM) was 1932 (1864, 2000). For the same molecule, the “Mean No. of Colonies/10^5 Cells” value ([1]; NALM-6, 100 μM) was 2 (2, 2), the “apoptotic cell death of splenocytes (TUNEL-positive)” value ([2]; 0.1 and 1 μg/ml) was “does not differ from control cells” and the “apoptotic cell death of splenocytes (TUNEL-positive)” value ([2]; 10 and 100 μg/ml) was “significantly increased”. For the same molecule, the IC50 [3] was 9.1 µM, the “Mean No. of Colonies/10^5 Cells” value ([4]; DAUDI, 0.3 μM) was 2030 (1700, 2360) and the “Mean No. of Colonies/10^5 Cells” value ([4]; DAUDI, 1 μM) was 2136 (1568, 2704). For the same molecule, the “Mean No. of Colonies/10^5 Cells” value ([4]; DAUDI, 3 μM) was 1406 (988, 1824), the “Mean No. of Colonies/10^5 Cells” value ([4]; DAUDI, 10 μM) was 1149 (1054, 1244) and the “Mean No. of Colonies/10^5 Cells” value ([4]; DAUDI, 30 μM) was 29 (12, 46). The EC50 ([4]; Homo sapiens, DAUDI cells, read-out: EC50, inhibition of clonogenic growth) was 18.8 µM, the inhibition at 0.3 µM ([4]; Homo sapiens, DAUDI, 0.3 μM) was 48.6% and the inhibition at 1 µM ([4]; Homo sapiens, DAUDI, 1 μM) was 45.9%. The inhibition at 3 µM ([4]; Homo sapiens, DAUDI, 3 μM) was 64.4%, the inhibition at 10 µM ([4]; Homo sapiens, DAUDI, 10 μM) was 70.9% and the inhibition at 30 µM ([4]; Homo sapiens, DAUDI, 30 μM) was 98%.
